Results published in US5210193A, “Piperazine derivatives” (American Cyanamid Company, priority 1990, dated 1993).
Structures can show the parent of a compound that is named as a salt. Where two headings read alike, the source gives them in different places.

Key:
Assay in all cases: in vitro antibacterial MIC, agar plate dilution
Assay type in all cases: cell-based
[1] = tested on: Enterobacter cloacae K 84-10; details: 18 hours, 35° C., monohydrochloride
Summary of the method: (§1)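 Agar plate dilution on Mueller-Hinton agar, inoculum about 10^4 CFU per spot applied with a Steers replicator. MIC (mcg/ml) is the lowest compound concentration preventing visible growth after 18 h at 35 °C.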

[2] = tested on: Pseudomonas aeruginosa CMC 83-20; details: Pseudomonas aeruginosa, CMC8320, 18 h, 35° C., read-out: MIC
Summary of the method: as §1

[3] = tested on: Proteus rettgeri IO 83-21; details: Providencia rettgeri, IO8321, 18 h, 35° C., read-out: MIC
Summary of the method: as §1

[4] = tested on: Pseudomonas aeruginosa LL-1244; details: Pseudomonas aeruginosa, LL1244, 18 h, 35° C., read-out: MIC
Summary of the method: as §1

[5] = tested on: Klebsiella pneumoniae CMC 84-31; details: Klebsiella pneumoniae, CMC8431, 18 h, 35° C., read-out: MIC
Summary of the method: as §1

[6] = tested on: Streptococcus faecalis UCI 85-19; details: Enterococcus faecalis, UCI8519, 18 h, 35° C., read-out: MIC
Summary of the method: as §1

[7] = tested on: Pseudomonas aeruginosa VGH 84-4; details: 18 hours, 35° C., monohydrochloride
Summary of the method: as §1

[8] = tested on: Staphylococcus aureus Smith; details: 18 hours, 35° C., monohydrochloride
Summary of the method: as §1

[9] = tested on: Pseudomonas aeruginosa K 84-16; details: Pseudomonas aeruginosa, K8416, 18 h, 35° C., read-out: MIC
Summary of the method: as §1

Escherichia coli LL 311 = details: Escherichia coli, LL311, 18 h, 35° C., read-out: MIC
Summary of the method: as §1

[10] = tested on: Staphylococcus aureus VGH 84-47; details: Staphylococcus aureus, VGH8447, 18 h, 35° C., read-out: MIC
Summary of the method: as §1

[11] = tested on: Pseudomonas aeruginosa VGH 84-3; details: Pseudomonas aeruginosa, VGH843, 18 h, 35° C., read-out: MIC
Summary of the method: as §1

[12] = tested on: Streptococcus faecalis VGH 84-65; details: 18 hours, 35° C., monohydrochloride
Summary of the method: as §1

[13] = tested on: Streptococcus faecalis VGH 84-69; details: Enterococcus faecalis, VGH8469, 18 h, 35° C., read-out: MIC
Summary of the method: as §1

[14] = tested on: Serratia marcescens K 84-18; details: 18 hours, 35° C., monohydrochloride
Summary of the method: as §1

[15] = tested on: Serratia marcescens IO 83-63; details: IO8363, 18 hours, 35° C.
Summary of the method: as §1

[16] = tested on: Streptococcus faecalis UCI 85-30; details: Enterococcus faecalis, UCI8530, 18 h, 35° C., read-out: MIC
Summary of the method: as §1

[17] = tested on: Escherichia coli MOR 84-20; details: Escherichia coli, MOR8420, 18 h, 35° C., read-out: MIC
Summary of the method: as §1

[18] = tested on: Escherichia coli VGH 84-19; details: Escherichia coli, VGH8419, 18 h, 35° C., read-out: MIC
Summary of the method: as §1

[19] = tested on: Serratia marcescens VGH 84-30; details: Serratia marcescens, VGH8430, 18 h, 35° C., read-out: MIC
Summary of the method: as §1

[20] = tested on: Providencia stuarti CMC 83-3; details: Providencia, CMC833, 18 h, 35° C., read-out: MIC
Summary of the method: as §1

[21] = tested on: Streptococcus faecalis CMC 83-120; details: Enterococcus faecalis, CMC83120, 18 h, 35° C., read-out: MIC
Summary of the method: as §1

[22] = tested on: Staphylococcus aureus ATTC 29213; details: 35° C.
Summary of the method: as §1

[23] = tested on: Morganella morganii MOR 84-45; details: Morganella morganii, MOR8445, 18 h, 35° C., read-out: MIC
Summary of the method: as §1

[24] = tested on: Staphylococcus aureus K 82-26; details: Staphylococcus aureus, K8226, 18 h, 35° C., read-out: MIC
Summary of the method: as §1

[25] = tested on: Escherichia coli ATCC 25922; details: 35° C.
Summary of the method: as §1

[26] = tested on: Serratia marcescens MOR 84-41; details: Serratia marcescens, MOR8441, 18 h, 35° C., read-out: MIC
Summary of the method: as §1

[27] = tested on: Enterobacter cloacae MOR 84-30; details: Enterobacter cloacae, MOR8430, 18 h, 35° C., read-out: MIC
Summary of the method: as §1

[28] = tested on: Klebsiella pneumoniae IO 83-5; details: Klebsiella pneumoniae, IO835, 18 h, 35° C., read-out: MIC
Summary of the method: as §1

[29] = tested on: Enterobacter cloacae VGH 84-39; details: Enterobacter cloacae, VGH8439, 18 h, 35° C., read-out: MIC
Summary of the method: as §1

[30] = tested on: Staphylococcus aureus VGH 84-45; details: 18 hours, 35° C., monohydrochloride
Summary of the method: as §1

[31] = tested on: Morganella morganii CMC 84-37; details: Morganella morganii, CMC8437, 18 h, 35° C., read-out: MIC
Summary of the method: as §1

[32] = tested on: Morganella morganii CMC 84-38; details: Morganella morganii, CMC8438, 18 h, 35° C., read-out: MIC
Summary of the method: as §1

[33] = tested on: Serratia marcescens CMC 83-74; details: Serratia marcescens, CMC8374, 18 h, 35° C., read-out: MIC
Summary of the method: as §1

[34] = tested on: Klebsiella pneumoniae MOR 84-24; details: Klebsiella pneumoniae, MOR8424, 18 h, 35° C., read-out: MIC
Summary of the method: as §1

[35] = tested on: Morganella morganii VHG 84-12; details: Morganella morganii, VHG8412, 18 h, Morganella morganii VHG 84-12 (VGH 84-12 for Example 131), 35° C., read-out: MIC
Summary of the method: as §1

[36] = tested on: Proteus rettgeri CMC 84-41; details: 18 hours, 35° C., monohydrochloride
Summary of the method: as §1

[37] = tested on: Escherichia coli CMC 84-50; details: Escherichia coli, CMC8450, 18 h, 35° C., read-out: MIC
Summary of the method: as §1

Citrobacter div. K 82-24 = details: Citrobacter, DIV.K8224, 18 h, 35° C., read-out: MIC
Summary of the method: as §1

[38] = tested on: Escherichia coli CMC 84-11; details: 18 hours, 35° C., monohydrochloride
Summary of the method: as §1

MIC [1]: 0.06 µg/mL | MIC [2]: 4 µg/mL | MIC [3]: 0.5 µg/mL | MIC [4]: 2 µg/mL | MIC [5]: 0.12 µg/mL | MIC [6]: 0.5 µg/mL | MIC [7]: 2 µg/mL | MIC [8]: 0.03 µg/mL | MIC [9]: 4 µg/mL | MIC (Escherichia coli LL 311): 0.03 µg/mL | MIC [10]: 0.12 µg/mL | MIC [11]: 16 µg/mL | MIC [12]: 0.5 µg/mL | MIC [13]: 0.5 µg/mL | MIC [14]: 0.25 µg/mL | MIC [15]: 1 µg/mL | MIC [16]: 1 µg/mL | MIC [17]: 0.12 µg/mL | MIC [18]: 0.12 µg/mL | MIC [19]: 4 µg/mL | MIC [20]: 8 µg/mL | MIC [21]: 1 µg/mL | MIC ([22]; 18 hours, monohydrochloride): 0.12 µg/mL | MIC ([22]; Staphylococcus aureus, ATTC29213, 18 h, read-out: MIC): 0.06 µg/mL | MIC [23]: 0.12 µg/mL | MIC [24]: 0.12 µg/mL | MIC ([25]; 18 hours, monohydrochloride): 0.12 µg/mL | MIC ([25]; Escherichia coli, ATCC25922, 18 h, read-out: MIC): 0.06 µg/mL | MIC [26]: 0.25 µg/mL | MIC [27]: 1 µg/mL | MIC [28]: 0.25 µg/mL | MIC [29]: 0.12 µg/mL | MIC [30]: 0.03 µg/mL | MIC [31]: 0.06 µg/mL | MIC [32]: 0.12 µg/mL | MIC [33]: 8 µg/mL | MIC [34]: 0.25 µg/mL | MIC [35]: 0.25 µg/mL | MIC [36]: 0.12 µg/mL | MIC [37]: 0.12 µg/mL | MIC (Citrobacter div. K 82-24): 0.12 µg/mL | MIC [38]: 0.03 µg/mL
Structure (SMILES): O=C(O)c1cn(C2CC2)c2cc(N3CCNC(c4ccsc4)C3)c(F)cc2c1=O (stereo not drawn) [Example 98, 1-Cyclopropyl-6-fluoro-1,4-dihydro-4-oxo-7-[3-(3-thienyl)-1-piperazinyl]-3-quinolinecarboxylic acid, monohydrochloride]
